{"source": "ChEMBL document CHEMBL1201862", "about": "“PubChem BioAssay data set” (2004)", "key": {"[1]": {"target": "T1, Mitochondrial peptide methionine sulfoxide reductase (Bos taurus, UniProt P54149)", "T1 sequence (P54149 whole entry)": "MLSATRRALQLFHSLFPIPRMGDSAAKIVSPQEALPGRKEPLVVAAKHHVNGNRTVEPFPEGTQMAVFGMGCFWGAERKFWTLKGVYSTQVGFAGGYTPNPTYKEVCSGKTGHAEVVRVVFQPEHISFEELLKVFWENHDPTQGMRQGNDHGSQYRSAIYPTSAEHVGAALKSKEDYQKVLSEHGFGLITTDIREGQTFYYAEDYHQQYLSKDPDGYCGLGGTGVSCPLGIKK", "assay": "Absorbance-based biochemical high throughput dose response assay for activators of Methionine sulfoxide reductase A (MsrA).", "assay_type": "functional"}, "[2]": {"target": "Ras and Rab interactor 1/Tyrosine-protein kinase ABL1 (Homo sapiens, UniProt P00519+Q13671)", "assay_type": "functional"}, "[3]": {"target": "T2, Polyadenylate-binding protein 1 (Homo sapiens, UniProt P11940)", "T2 sequence (P11940 whole entry)": "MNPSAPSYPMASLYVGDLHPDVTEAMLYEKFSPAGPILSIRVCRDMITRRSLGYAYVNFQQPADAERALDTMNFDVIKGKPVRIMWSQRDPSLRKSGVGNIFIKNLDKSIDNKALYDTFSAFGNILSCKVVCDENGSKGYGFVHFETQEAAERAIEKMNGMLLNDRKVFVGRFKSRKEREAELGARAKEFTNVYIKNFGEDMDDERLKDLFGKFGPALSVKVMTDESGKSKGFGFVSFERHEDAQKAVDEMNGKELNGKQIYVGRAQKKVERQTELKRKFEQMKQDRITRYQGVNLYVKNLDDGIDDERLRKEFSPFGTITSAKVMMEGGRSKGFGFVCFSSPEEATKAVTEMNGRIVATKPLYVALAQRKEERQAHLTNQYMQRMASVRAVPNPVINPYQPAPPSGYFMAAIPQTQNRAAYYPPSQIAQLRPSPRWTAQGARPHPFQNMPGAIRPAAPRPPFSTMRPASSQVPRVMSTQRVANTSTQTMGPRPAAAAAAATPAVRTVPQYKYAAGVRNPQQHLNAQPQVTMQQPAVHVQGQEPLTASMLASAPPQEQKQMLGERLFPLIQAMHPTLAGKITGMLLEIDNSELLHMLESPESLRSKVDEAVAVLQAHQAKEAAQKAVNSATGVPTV", "assay": "PABP1 MLLE–PAM2 binding inhibitor potency, dose response, biochemical, fluorescence polarization, FITC-PAM2 peptide (AID 602259)", "assay_type": "functional", "details": "read-out: IC50_Mean"}, "[4]": {"target": "T2, Polyadenylate-binding protein 1", "assay": "PABP1 MLLE–PAM2 interaction inhibitors, dose response, miRNA deadenylation inhibitor project, biochemical, fluorescence polarization, Cy5-PAM2 peptide, secondary (AID 602260)", "assay_type": "functional", "details": "read-out: IC50_Mean"}, "[5]": {"target": "Long-chain-fatty-acid--AMP ligase FadD28 (Mycobacterium tuberculosis, UniProt P9WQ59)", "sequence (P9WQ59 whole entry)": "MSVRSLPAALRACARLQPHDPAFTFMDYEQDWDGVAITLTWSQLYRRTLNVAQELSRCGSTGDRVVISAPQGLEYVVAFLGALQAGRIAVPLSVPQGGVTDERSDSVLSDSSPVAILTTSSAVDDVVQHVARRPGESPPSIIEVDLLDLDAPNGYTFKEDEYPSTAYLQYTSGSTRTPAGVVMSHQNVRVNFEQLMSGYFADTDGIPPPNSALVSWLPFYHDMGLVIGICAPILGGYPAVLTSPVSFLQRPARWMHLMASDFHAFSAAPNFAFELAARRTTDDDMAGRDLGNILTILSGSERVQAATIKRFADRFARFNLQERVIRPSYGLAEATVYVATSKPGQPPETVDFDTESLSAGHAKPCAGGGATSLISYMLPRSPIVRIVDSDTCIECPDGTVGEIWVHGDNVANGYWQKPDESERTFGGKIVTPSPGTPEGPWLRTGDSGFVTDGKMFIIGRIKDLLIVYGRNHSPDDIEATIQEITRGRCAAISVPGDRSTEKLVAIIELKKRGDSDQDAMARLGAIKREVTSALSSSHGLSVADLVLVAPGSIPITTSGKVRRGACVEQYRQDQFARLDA", "assay": "Fluorescence polarization aasay to screen for inhibitors that compete for the binding of FadD28 to a bisubstrate Measured in Biochemical System Using Plate Reader - 2147-01_Inhibitor_Dose_CherryPick_Activity.", "assay_type": "functional, Mycobacterium tuberculosis H37Rv"}, "SUMO-activating enzyme [6]": {"target": "T3, SUMO-activating enzyme (Homo sapiens, UniProt Q9UBT2)", "T3 sequence (Q9UBE0 whole entry)": "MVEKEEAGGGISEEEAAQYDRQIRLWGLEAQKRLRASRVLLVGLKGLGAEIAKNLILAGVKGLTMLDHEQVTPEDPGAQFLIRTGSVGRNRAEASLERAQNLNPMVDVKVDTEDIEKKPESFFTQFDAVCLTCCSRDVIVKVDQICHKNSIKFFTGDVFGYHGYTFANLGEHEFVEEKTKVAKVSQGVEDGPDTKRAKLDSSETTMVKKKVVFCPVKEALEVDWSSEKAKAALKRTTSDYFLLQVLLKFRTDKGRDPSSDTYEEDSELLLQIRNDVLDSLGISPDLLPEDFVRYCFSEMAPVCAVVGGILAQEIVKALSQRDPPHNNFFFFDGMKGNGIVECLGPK", "T3 sequence (Q9UBT2 whole entry)": "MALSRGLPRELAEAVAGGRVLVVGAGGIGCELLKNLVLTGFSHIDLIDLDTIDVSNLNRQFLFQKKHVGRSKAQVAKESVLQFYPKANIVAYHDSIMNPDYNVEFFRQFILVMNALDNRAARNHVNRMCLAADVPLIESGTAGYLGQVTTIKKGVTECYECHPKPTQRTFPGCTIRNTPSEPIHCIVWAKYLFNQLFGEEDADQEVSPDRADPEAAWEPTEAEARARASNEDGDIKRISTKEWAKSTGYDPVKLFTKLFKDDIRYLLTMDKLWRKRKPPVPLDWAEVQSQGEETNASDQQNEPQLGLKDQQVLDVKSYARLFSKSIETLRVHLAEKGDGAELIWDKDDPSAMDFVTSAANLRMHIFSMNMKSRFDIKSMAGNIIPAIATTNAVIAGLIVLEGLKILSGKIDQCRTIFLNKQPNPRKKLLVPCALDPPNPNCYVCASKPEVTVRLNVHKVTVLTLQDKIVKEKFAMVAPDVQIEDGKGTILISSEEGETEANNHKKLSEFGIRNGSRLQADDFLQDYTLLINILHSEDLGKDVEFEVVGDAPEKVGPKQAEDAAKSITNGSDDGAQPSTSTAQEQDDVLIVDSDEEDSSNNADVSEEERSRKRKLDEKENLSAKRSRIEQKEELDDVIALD", "assay": "SUMOylation inhibitor hit validation, confirmation, SUMOylation inhibitor project, biochemical, AlphaScreen (AID 2018)", "assay_type": "functional"}, "SUMO-activating enzyme [7]": {"target": "T3, SUMO-activating enzyme", "assay": "inhibitors of in vitro SUMOylation cascade, primary screen, biochemical, HTRF, uHTS (AID 2006)", "assay_type": "protein-complex assay"}, "Genome polyprotein": {"target": "Genome polyprotein (dengue virus type 2, UniProt P29990)", "sequence (P29990 2492-3391 limits assumed)": "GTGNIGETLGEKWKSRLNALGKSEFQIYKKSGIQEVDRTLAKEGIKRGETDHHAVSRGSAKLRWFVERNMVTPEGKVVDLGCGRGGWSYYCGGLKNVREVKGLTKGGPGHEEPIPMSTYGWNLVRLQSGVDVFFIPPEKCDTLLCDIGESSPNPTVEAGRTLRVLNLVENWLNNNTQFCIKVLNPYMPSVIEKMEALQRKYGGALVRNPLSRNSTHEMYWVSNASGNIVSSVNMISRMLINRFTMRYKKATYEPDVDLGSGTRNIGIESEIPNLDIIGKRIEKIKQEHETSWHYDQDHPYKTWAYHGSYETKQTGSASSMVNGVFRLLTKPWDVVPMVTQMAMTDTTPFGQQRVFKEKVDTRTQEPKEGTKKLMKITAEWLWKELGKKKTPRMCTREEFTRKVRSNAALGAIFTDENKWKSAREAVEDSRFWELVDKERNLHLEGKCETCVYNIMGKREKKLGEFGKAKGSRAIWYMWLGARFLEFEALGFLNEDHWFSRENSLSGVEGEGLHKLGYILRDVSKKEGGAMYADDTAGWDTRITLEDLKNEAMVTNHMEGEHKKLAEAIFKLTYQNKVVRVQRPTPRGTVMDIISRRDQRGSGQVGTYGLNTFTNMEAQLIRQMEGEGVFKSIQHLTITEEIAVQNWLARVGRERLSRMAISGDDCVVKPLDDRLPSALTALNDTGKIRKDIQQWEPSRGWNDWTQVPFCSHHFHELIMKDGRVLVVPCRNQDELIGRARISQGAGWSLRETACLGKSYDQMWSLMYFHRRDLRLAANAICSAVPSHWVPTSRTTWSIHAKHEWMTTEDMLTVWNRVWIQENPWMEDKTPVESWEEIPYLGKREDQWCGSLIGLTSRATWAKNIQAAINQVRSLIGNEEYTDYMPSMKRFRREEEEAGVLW", "assay": "Dengue-2 NS5 methyltransferase inhibitors, primary screen, biochemical, confirmation dose response (AID 588689)", "assay_type": "functional"}, "Caspase-3": {"target": "T4, Caspase-3 (Homo sapiens, UniProt P42574)", "T4 sequence (P42574 whole entry)": "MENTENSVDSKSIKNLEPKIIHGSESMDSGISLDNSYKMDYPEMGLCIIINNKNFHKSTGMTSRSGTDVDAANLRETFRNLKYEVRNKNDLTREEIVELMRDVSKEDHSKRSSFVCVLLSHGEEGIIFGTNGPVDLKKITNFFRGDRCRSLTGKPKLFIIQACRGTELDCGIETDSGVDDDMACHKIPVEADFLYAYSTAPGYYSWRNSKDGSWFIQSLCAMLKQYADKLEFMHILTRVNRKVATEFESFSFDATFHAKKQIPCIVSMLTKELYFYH", "assay": "Dose-response confirmation of uHTS inhibitor hits of Sentrin-Specific Protease 8 in a Caspase-3 Fluorescence assay.", "assay_type": "functional"}, "[8]": {"target": "T5, Sentrin-specific protease 8 (Homo sapiens, UniProt Q96LD8)", "T5 sequence (Q96LD8 whole entry)": "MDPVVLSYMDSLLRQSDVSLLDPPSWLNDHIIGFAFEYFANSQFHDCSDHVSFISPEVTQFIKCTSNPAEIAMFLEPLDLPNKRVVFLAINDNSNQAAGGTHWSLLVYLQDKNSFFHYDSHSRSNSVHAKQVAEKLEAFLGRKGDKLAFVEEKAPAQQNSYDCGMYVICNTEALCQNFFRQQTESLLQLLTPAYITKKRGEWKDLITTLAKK", "assay_type": "functional"}, "[9]": {"target": "T5, Sentrin-specific protease 8", "assay_type": "functional", "remark": "listed apart in the source"}, "[10]": {"target": "T6, Orexin/Hypocretin receptor type 1 (Homo sapiens, UniProt O43613)", "T6 sequence (O43613 whole entry)": "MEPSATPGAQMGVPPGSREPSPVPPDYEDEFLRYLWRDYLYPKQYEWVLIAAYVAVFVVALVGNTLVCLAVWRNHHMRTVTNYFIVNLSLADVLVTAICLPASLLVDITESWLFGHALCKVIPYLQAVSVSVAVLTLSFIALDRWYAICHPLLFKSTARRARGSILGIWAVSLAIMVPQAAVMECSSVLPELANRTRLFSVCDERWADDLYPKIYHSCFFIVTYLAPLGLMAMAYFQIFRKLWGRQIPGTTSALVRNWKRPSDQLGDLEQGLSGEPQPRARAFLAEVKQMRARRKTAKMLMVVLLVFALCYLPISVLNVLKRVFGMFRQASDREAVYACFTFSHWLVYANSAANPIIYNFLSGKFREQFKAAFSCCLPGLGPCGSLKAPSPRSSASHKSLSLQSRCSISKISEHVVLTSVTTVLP", "assay": "Homogeneous Time Resolved Fluorescence (HTRF)-based cell-based high throughput dose response assay for antagonists of the orexin 1 receptor (OX1R; HCRTR1). [Related pubchem assays (depositor defined):AID434989, AID435008, AID463079, AID485270, AID492963, AID492964, AID492965, AID493232, AID504717, AID504718]", "assay_type": "functional"}, "[11]": {"assay": "(§1) Counterscreen for antagonists of the orexin 1 receptor (OX1R; HCRTR1): Fluorescence-based cell-based high throughput dose response assay to identify antagonists of the parental CHO cell line. [Related pubchem assays (depositor defined):AID434989, AID435008, AID463079, AID485270, AID492963, AID492964, AID492965, AID493232, AID504699, AID504701]", "assay_type": "functional"}, "Orexin receptor type 2 [12]": {"target": "T7, Orexin receptor type 2 (Homo sapiens, UniProt O43614)", "T7 sequence (O43614 whole entry)": "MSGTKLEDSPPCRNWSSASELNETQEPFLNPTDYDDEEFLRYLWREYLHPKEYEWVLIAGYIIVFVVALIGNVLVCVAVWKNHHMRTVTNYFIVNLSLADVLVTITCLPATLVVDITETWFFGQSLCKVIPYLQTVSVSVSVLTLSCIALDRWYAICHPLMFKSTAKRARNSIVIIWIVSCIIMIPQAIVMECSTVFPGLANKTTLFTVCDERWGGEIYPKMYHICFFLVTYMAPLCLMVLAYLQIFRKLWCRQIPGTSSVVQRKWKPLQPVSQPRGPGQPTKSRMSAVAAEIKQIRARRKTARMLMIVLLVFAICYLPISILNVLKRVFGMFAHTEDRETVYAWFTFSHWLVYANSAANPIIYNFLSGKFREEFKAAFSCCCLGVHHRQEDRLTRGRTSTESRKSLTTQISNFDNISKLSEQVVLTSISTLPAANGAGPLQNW", "assay": "Counterscreen assay for antagonists of the orexin 1 receptor (OX1R; HCRTR1): Fluorescence-based cell-based dose response assay for antagonists of the orexin 2 receptor (OX2R; HCRTR2), run by assay provider.", "assay_type": "functional"}, "Orexin receptor type 2 [13]": {"target": "T7, Orexin receptor type 2", "assay": "Counterscreen assay for antagonists of the orexin 1 receptor (OX1R; HCRTR1): Homogeneous Time Resolved Fluorescence (HTRF)-based cell-based dose response assay for antagonists of the orexin 2 receptor (OX2R; HCRTR2), run by assay provider.", "assay_type": "functional"}, "[14]": {"target": "T6, Orexin/Hypocretin receptor type 1", "assay": "Fluorescence-based cell-based high throughput dose response assay for antagonists of the orexin 1 receptor (OX1R; HCRTR1). [Related pubchem assays (depositor defined):AID434989, AID435008, AID463079, AID485270, AID492963, AID492964, AID492965, AID493232, AID504717, AID504718]", "assay_type": "functional"}, "CHO-K1": {"system": "CHO-K1", "assay": "as §1, with “Homogeneous time resolved fluorescence (HTRF)-based” for “Fluorescence-based”, “cell-based” for “cell-based high throughput”, “CHO-K1” for “CHO”", "assay_type": "functional", "details": "Cricetulus griseus"}, "[15]": {"target": "Fructose-bisphosphate aldolase (Mycobacterium tuberculosis, UniProt P9WQA3)", "sequence (P9WQA3 whole entry)": "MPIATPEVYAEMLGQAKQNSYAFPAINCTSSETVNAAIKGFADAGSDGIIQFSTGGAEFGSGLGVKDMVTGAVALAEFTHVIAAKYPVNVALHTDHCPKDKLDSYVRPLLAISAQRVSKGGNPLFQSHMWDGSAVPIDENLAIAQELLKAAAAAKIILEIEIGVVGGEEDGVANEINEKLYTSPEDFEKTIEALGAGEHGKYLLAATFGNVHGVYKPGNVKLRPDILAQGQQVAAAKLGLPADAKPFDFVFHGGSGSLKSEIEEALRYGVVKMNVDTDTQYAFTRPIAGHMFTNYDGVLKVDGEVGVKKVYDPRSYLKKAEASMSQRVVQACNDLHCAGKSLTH", "assay": "Fluorescence-based biochemical high throughput dose response assay for inhibitors of the fructose-bisphosphate aldolase (FBA) of M. tuberculosis.", "assay_type": "functional"}}, "note": "Activity calls are given as the source filed them."}
{"smiles": "O=C1C(Cl)=C(NCc2ccco2)C(=O)c2ccccc21", "values": [{"measurement": "EC50", "setting": "[1]", "value": "> 104 µM (inactive)"}]}
{"smiles": "CN(CCc1ccccc1)C(=O)c1ccc(NC(=O)Cc2ccc(NC(=O)C3CCN(C(=O)C4CCCCC4)CC3)cc2)cc1", "values": [{"measurement": "IC50", "setting": "[2]", "value": "11.2 µM (inactive)"}]}
{"smiles": "O=c1[nH]c(=S)[nH]cc1Oc1ccc(Cl)cc1Cl", "values": [{"measurement": "EC50", "setting": "[1]", "value": "> 104 µM (inactive)"}, {"measurement": "IC50", "setting": "[3]", "value": "> 66 µM (inactive)"}, {"measurement": "IC50", "setting": "[4]", "value": "> 66 µM (inactive)"}]}
{"smiles": "COc1ccc(C(=O)NCCc2c[nH]c3ccccc23)cc1S(=O)(=O)N1CCOCC1", "values": [{"measurement": "AC50", "setting": "[5]", "value": "82.7 µM (active)"}]}
{"smiles": "CCC(C)(C)C1CCc2c(sc(NC(=O)c3ccccc3C(=O)O)c2C#N)C1", "note": "(stereo not given)", "values": [{"measurement": "IC50", "setting": "SUMO-activating enzyme [6]", "value": "15.3 µM (active)"}, {"measurement": "IC50", "setting": "SUMO-activating enzyme [7]", "value": "21.4 µM (active)"}, {"measurement": "IC50", "setting": "Genome polyprotein", "value": "42.6 µM (active)"}, {"measurement": "AC50", "setting": "[5]", "value": "37.3 µM (active)"}]}
{"smiles": "COc1ccc(N2C(=O)[C@@H]3[C@H](C2=O)[C@H]2c4ccccc4C=CN2[C@@H]3C(C)=O)cc1", "values": [{"measurement": "IC50", "setting": "Caspase-3", "value": "3.03 µM (active)"}, {"measurement": "IC50", "setting": "[8]", "value": "1.19 µM (active)"}, {"measurement": "IC50", "setting": "[9]", "value": "0.543 µM (active)"}]}
{"smiles": "Cc1nc2c(-c3ccccc3)c(C)nn2c(N)c1-c1ccccc1", "values": [{"measurement": "IC50", "setting": "[10]", "value": "5.34 µM (active)"}, {"measurement": "IC50", "setting": "[11]", "value": "49 µM (inactive)"}, {"measurement": "IC50", "setting": "Orexin receptor type 2 [12]", "value": "24.9 µM (inactive)"}, {"measurement": "IC50", "setting": "Orexin receptor type 2 [13]", "value": "> 50 µM (inactive)"}, {"measurement": "IC50", "setting": "[14]", "value": "13.3 µM (inactive)"}, {"measurement": "IC50", "setting": "CHO-K1", "value": "> 66.2 µM (inactive)"}]}
{"smiles": "COc1ccc2cc3cc(C(=O)N4CCN(C5CCCCC5)CC4)oc3nc2c1", "values": [{"measurement": "IC50", "setting": "[15]", "value": "0.92 µM (active)"}]}
